In PubChem BioAssay AID328 (DTP/NCI, 2004) one finds T/C data, which are given here for 20 compounds.

Several values for one entry are separate records, joined by “and”; a condition that tells them apart may be missing. Equal entries are not always repeated. Inconclusive results and toxic doses are left out. Non-standard residues stand in square brackets, D forms with d. Residues, ends and D or L forms follow the SMILES beside them. ξ: configuration not given here. Ac5c = NC1(C(=O)O)CCCC1; ξS = NC(CO)C(=O)O

The assay relates to BDF1 mice, P388 leukemia ip, median survival T/C. The experiment in a line: NCI In Vivo Anticancer Drug Screen. Data for tumor model P388 Leukemia (intraperitoneal) in B6D2F1 (BDF1) mice. Conditions: endpoint: median survival time, higher = longer survival. Summed up:
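In tumour-bearing mice, survival after compound treatment is set against the vehicle group and given as a quotient.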

[1] abbreviates: dose: 100.0 mg/kg/injection, schedule: Q04DX003 (ip), vehicle: saline.
[2] abbreviates: dose: 200.0 mg/kg/injection, schedule: Q04DX003 (ip), vehicle: saline with Tween-80.
Setting [3] is: dose: 100.0 mg/kg/injection, schedule: Q04DX003 (ip), vehicle: saline with Tween-80.
Setting [4] is: dose: 100.0 mg/kg/injection, schedule: Q01DX009 (ip), vehicle: saline with Tween-80.
[5] abbreviates: dose: 400.0 mg/kg/injection, schedule: Q01DX009 (ip), vehicle: saline with Tween-80.
Where [6] appears, read: dose: 100.0 mg/kg/injection, schedule: Q01DX001 (ip), vehicle: Klucel (hydroxypropylcellulose) (HPC).
[7] abbreviates: dose: 50.0 mg/kg/injection, schedule: Q01DX009 (ip), vehicle: saline with Tween-80.
[8] abbreviates: dose: 200.0 mg/kg/injection, schedule: Q01DX009 (ip), vehicle: saline with Tween-80.
Setting [9] is: dose: 400.0 mg/kg/injection, schedule: Q04DX003 (ip), vehicle: saline with Tween-80.
Setting [10] is: dose: 200.0 mg/kg/injection, schedule: Q01DX001 (ip), vehicle: Klucel (hydroxypropylcellulose) (HPC).
The mark [11] stands for this setting: dose: 400.0 mg/kg/injection, schedule: Q01DX001 (ip), vehicle: Klucel (hydroxypropylcellulose) (HPC).
Setting [12] is: dose: 200.0 mg/kg/injection, schedule: Q04DX003 (ip), vehicle: saline.
The mark [13] stands for this setting: dose: 400.0 mg/kg/injection, schedule: Q04DX003 (ip), vehicle: saline.

Regarding `CCCCOP(=O)(N1CC1CC)N1CC1CC` (stereo not given), the T/C runs as follows: (dose: 50.0 mg/kg/injection, schedule: Q04DX003 (ip), vehicle: saline) 123 % of control; (dose: 60.0 mg/kg/injection, schedule: Q04DX003 (ip), vehicle: saline) 122 % of control; (dose: 85.0 mg/kg/injection, schedule: Q04DX003 (ip), vehicle: saline) 122 % of control; under setting [1], 150 % of control; (dose: 133.0 mg/kg/injection, schedule: Q04DX003 (ip), vehicle: saline with Tween-80) 109 % of control; (dose: 133.0 mg/kg/injection, schedule: Q04DX003 (ip), vehicle: saline) 100 % of control. Besides, the T/C is, setting by setting: under setting [2], 109 % of control; (dose: 300.0 mg/kg/injection, schedule: Q04DX003 (ip), vehicle: saline) 176 % of control.
For the compound `C=C1C2CCC3(C)C(c4ccoc4)OC(=O)CC13OC1CC(=O)C(C)(C)C(CC(=O)OC)C12C` (stereo not given), the T/C was 100 % of control (dose: 2.0 mg/kg/injection, schedule: Q01DX009 (ip), vehicle: Klucel (hydroxypropylcellulose) (HPC)); 100 % of control (dose: 4.0 mg/kg/injection, schedule: Q01DX009 (ip), vehicle: Klucel (hydroxypropylcellulose) (HPC)); 96 % of control (dose: 8.0 mg/kg/injection, schedule: Q01DX009 (ip), vehicle: Klucel (hydroxypropylcellulose) (HPC)); 100 % of control (dose: 16.0 mg/kg/injection, schedule: Q01DX009 (ip), vehicle: Klucel (hydroxypropylcellulose) (HPC)); 89 % of control (dose: 32.0 mg/kg/injection, schedule: Q01DX009 (ip), vehicle: Klucel (hydroxypropylcellulose) (HPC)).
`NC(=S)c1cncnc1N`: under setting [3], the T/C is 91 % of control.
For `O=C(O)c1cc([N+](=O)[O-])cc([N+](=O)[O-])c1` (tested in a mixture with another compound), the T/C runs as follows: (dose: 3.13 mg/kg/injection, schedule: Q04DX002 (ip), vehicle: saline with Tween-80) 100 % of control; (dose: 6.25 mg/kg/injection, schedule: Q04DX002 (ip), vehicle: saline with Tween-80) 108 % of control; (dose: 12.5 mg/kg/injection, schedule: Q04DX002 (ip), vehicle: saline with Tween-80) 104 % of control; (dose: 25.0 mg/kg/injection, schedule: Q04DX002 (ip), vehicle: saline with Tween-80) 112 % of control.
On to `CC(=O)Nc1ccc(S(=O)(=O)NC(N)=O)cc1`, for which the T/C is, setting by setting: under setting [4], 105 % of control; under setting [5], 98 % of control.
`CCCCN(CCCC)CC(O)c1ccnc2cc3c(cc12)OCO3` (stereo not given): the T/C is 104 % of control (dose: 25.0 mg/kg/injection, schedule: Q01DX001 (ip), vehicle: Klucel (hydroxypropylcellulose) (HPC)); 104 % of control (dose: 50.0 mg/kg/injection, schedule: Q01DX001 (ip), vehicle: Klucel (hydroxypropylcellulose) (HPC)); 100 % of control under setting [6]; 100 % of control (dose: 100.0 mg/kg/injection, schedule: Q01DX001 (ip), vehicle: saline with Tween-80).
Turning to `CCOC(=O)c1ccccc1S(=O)(=O)c1ccccc1C(=O)OCC`, the T/C is, setting by setting: under setting [7], 106 % of control; under setting [4], 100 % of control; under setting [8], 112 % of control.
For `CC1(c2ccco2)NC(=O)NC1=O` (stereo not given), the T/C reads like this: under setting [4], 105 % of control; under setting [8], 105 % of control; under setting [5], 105 % of control.
With `O=[N+]([O-])c1ccccc1CSc1ncnc2nc[nH]c12`, the T/C is 100 % of control under setting [3]; 104 % of control (dose: 132.0 mg/kg/injection, schedule: Q01DX009 (ip), vehicle: saline with Tween-80); 100 % of control under setting [8]; 108 % of control under setting [2]; 86 % of control (dose: 300.0 mg/kg/injection, schedule: Q01DX009 (ip), vehicle: saline with Tween-80); 116 % of control under setting [9].
`O=C(CI)Nc1ccc(O)c2ccccc12`: the T/C runs as follows: (dose: 0.78 mg/kg/injection, schedule: Q01DX009 (ip), vehicle: water) 97 % of control; (dose: 1.56 mg/kg/injection, schedule: Q01DX009 (ip), vehicle: water) 106 % of control; (dose: 3.12 mg/kg/injection, schedule: Q01DX009 (ip), vehicle: water) 106 % of control; (dose: 6.25 mg/kg/injection, schedule: Q01DX009 (ip), vehicle: water) 108 % of control; (dose: 6.25 mg/kg/injection, schedule: Q04DX003 (ip), vehicle: water) 89 % of control; (dose: 12.5 mg/kg/injection, schedule: Q01DX009 (ip), vehicle: water) 123 % of control. Also, the T/C runs as follows: (dose: 12.5 mg/kg/injection, schedule: Q04DX003 (ip), vehicle: water) 99 % of control; (dose: 25.0 mg/kg/injection, schedule: Q04DX003 (ip), vehicle: water) 104 % of control.
For the compound `c1ccc(SC23CC4CC(CC(C4)C2)C3)nc1`, the T/C is 100 % of control under setting [6], 90 % of control under setting [10] and 100 % of control under setting [11].
Regarding `COC(=O)C(NC=O)C(=O)OC`, the T/C is, setting by setting: (dose: 100.0 mg/kg/injection, schedule: Q01DX009 (ip), vehicle: saline) 100 % of control; under setting [1], 100 % of control; (dose: 200.0 mg/kg/injection, schedule: Q01DX009 (ip), vehicle: saline) 114 % of control; under setting [12], 90 % of control; (dose: 400.0 mg/kg/injection, schedule: Q01DX009 (ip), vehicle: saline) 100 % of control; under setting [13], 90 % of control.
`COC(=O)C(CSCSC)NC(=O)/C=C/c1ccccc1Cl` (stereo not given): the T/C is 100 % of control under setting [3]; 87 % of control and 104 % of control under setting [2]; 90 % of control under setting [9].
With `COc1cc2ccc3c(c2cc1OC)CN1CCc2cc4c(cc2C1C3)OCO4` (stereo not given), the T/C runs as follows: (dose: 44.0 mg/kg/injection, schedule: Q01DX009 (ip), vehicle: saline with Tween-80) 115 % of control; under setting [7], 120 % of control; under setting [1], 118 % of control; under setting [8], 112 % of control; under setting [12], 100 % of control; under setting [13], 100 % of control.
Turning to `Clc1c(Cl)c(C[P+](CCP(c2ccccc2)c2ccccc2)(c2ccccc2)c2ccccc2)c(Cl)c(Cl)c1C[P+](CCP(c1ccccc1)c1ccccc1)(c1ccccc1)c1ccccc1`, the T/C (dose: 3.13 mg/kg/injection, schedule: Q01DX009 (ip), vehicle: suspension in saline) was 114 % of control.
As to `c1ccc2c(c1)Cc1c(NC3=NCCO3)cccc1-2`, the T/C reads like this: (dose: 50.0 mg/kg/injection, schedule: Q04DX003 (ip), vehicle: saline with Tween-80) 95 % of control; under setting [3], 95 % of control; under setting [2], 108 % of control; under setting [9], 100 % of control.
Turning to `ClC1=C(Cl)C2(Cl)C3COCC3C1(Cl)C2(Cl)Cl` (stereo not given), the T/C under setting [6] was 113 % of control; the T/C (dose: 100.0 mg/kg/injection, schedule: Q04DX003 (ip), vehicle: Klucel (hydroxypropylcellulose) (HPC)) was 104 % of control; the T/C under setting [10] is 113 % of control; the T/C (dose: 200.0 mg/kg/injection, schedule: Q04DX003 (ip), vehicle: Klucel (hydroxypropylcellulose) (HPC)) was 100 % of control and 108 % of control; the T/C under setting [11] is 104 % of control; the T/C (dose: 400.0 mg/kg/injection, schedule: Q04DX003 (ip), vehicle: Klucel (hydroxypropylcellulose) (HPC)) was 100 % of control.
In the case of `NC(CO)C(=O)NC1(C(=O)O)CCCC1` (stereo not given) (H-[ξS]-[Ac5c]-OH), the T/C reads like this: under setting [4], 109 % of control; under setting [8], 118 % of control; under setting [5], 95 % of control.
On to `COc1ccc2c(c1)C(=O)CC=C(C(=O)O)N2`, for which the T/C is 112 % of control under setting [4]; 100 % of control under setting [3]; 112 % of control under setting [8]; 115 % of control under setting [2]; 116 % of control under setting [5]; 115 % of control under setting [9].
For `O=C(O)c1ccccc1C(=O)O` (tested in a mixture with another compound), the T/C was 89 % of control (dose: 50.0 mg/kg/injection, schedule: Q01DX009 (ip), vehicle: Klucel (hydroxypropylcellulose) (HPC)); 91 % of control (dose: 100.0 mg/kg/injection, schedule: Q01DX009 (ip), vehicle: Klucel (hydroxypropylcellulose) (HPC)); 96 % of control (dose: 200.0 mg/kg/injection, schedule: Q01DX009 (ip), vehicle: Klucel (hydroxypropylcellulose) (HPC)).
